Results reported in patent publication US20250288584A1, “COMBINATIONS COMPRISING POSITIVE ALLOSTERIC MODULATORS OR ORTHOSTERIC AGONISTS OF METABOTROPIC GLUTAMATERGIC RECEPTOR SUBTYPE 2 AND THEIR USE” (JANSSEN PHARMACEUTICA NV, priority 2014, published 2025).
Entries after “also recorded” stand apart in the source; their conditions may differ. Like-named read-outs stand apart in the source and are kept apart here.

Columns and labels:
corneal kindled seizures = assay: Mouse corneal kindling model; type: in vivo, mice; conditions: for Mean Seizure Score: Racine 0 to 5
Method: After the mice reached a stable kindled state, the test compound or vehicle was administered and, at the previously determined TPE, each animal was given the electrical stimulus indicated above. […] One dose of LEV and two doses of Co.

[1] = system: 6 Hz (44 mA) psychomotor seizures; assay: 6 Hz psychomotor seizure test, 44 mA (alone, combination with LEV, isobolographic study); type: in vivo, mice
Outline: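 Mice dosed s.c. or p.o. at 0.01 mL/g, alone or with LEV at fixed dose ratios proportional to ED50 values. Focal seizures induced by corneal stimulation (6 Hz, 0.2 msec pulse, 3 sec, 44 mA); animals without stun, forelimb clonus, vibrissae twitch or Straub-tail were counted as protected. ED50 values derived, with combinations analysed isobolographically.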

MES seizures = conditions: in vivo; cited from earlier work
human mGlu2 receptor = biological target: T1, human mGlu2 receptor (Homo sapiens, UniProt Q14416); assay: [35S]GTPγS binding assay, mGluR2 PAM; type: biochemical; conditions: for Emax: maximal % effect relative to control glutamate response, EC20 glutamate, read-out: GTPγS-hmGluR2 PAM Emax
T1 construct: expressed in transfected cells; host or cells: CHO cells
T1 sequence (Q14416 19-872): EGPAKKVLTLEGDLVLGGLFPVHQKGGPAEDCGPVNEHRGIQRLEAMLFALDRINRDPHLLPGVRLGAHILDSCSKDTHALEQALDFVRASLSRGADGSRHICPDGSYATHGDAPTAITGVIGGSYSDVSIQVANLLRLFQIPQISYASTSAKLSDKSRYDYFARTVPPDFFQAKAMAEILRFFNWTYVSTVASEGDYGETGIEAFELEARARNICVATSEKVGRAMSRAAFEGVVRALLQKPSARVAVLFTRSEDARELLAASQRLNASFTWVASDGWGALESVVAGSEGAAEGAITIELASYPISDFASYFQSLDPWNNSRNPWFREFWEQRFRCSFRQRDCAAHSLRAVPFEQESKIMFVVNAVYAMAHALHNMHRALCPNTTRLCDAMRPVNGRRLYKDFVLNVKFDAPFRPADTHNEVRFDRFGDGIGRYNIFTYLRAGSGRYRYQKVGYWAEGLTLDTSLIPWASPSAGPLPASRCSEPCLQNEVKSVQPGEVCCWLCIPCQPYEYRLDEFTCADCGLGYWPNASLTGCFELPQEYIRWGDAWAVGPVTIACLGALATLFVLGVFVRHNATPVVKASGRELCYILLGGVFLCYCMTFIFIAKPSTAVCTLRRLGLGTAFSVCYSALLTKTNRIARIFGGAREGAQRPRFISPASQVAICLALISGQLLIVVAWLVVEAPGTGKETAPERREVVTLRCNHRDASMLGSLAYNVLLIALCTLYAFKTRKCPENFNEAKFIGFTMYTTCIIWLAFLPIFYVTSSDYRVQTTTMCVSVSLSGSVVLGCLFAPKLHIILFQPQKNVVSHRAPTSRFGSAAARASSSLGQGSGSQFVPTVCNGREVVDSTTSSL

Which “Seizure score (dose) Corneal kindling / Mean Seizure Score” value (corneal kindled seizures; 20 mg/kg s.c., Racine score 0-5) does the source give for `Fc1ccc(N2CCN(Cc3ccn4c(CC5CC5)nnc4c3C(F)(F)F)CC2)c(F)c1` [Co. No. 1] here?
Its value is 3.7.

What about the “# protected/# tested” value (corneal kindled seizures; Co. No. 1 20 mg/kg) of the same compound?
The value was 5/16.

And the “% Protected” value (corneal kindled seizures; Co. No. 1 20 mg/kg)?
Its value is 31%.

And the “# protected/# tested” value (corneal kindled seizures; Co. No. 1 30 mg/kg)?
Its value is 3/12.

And the “% Protected” value (corneal kindled seizures; Co. No. 1 30 mg/kg)?
The value was 25%.

And the “Mean Seizure Score” value (corneal kindled seizures; Co. No. 1 30 mg/kg)?
Its value is 4.0.

And the responders at 2.5 mg/kg ([1]; Mus musculus, sc, 0.5 h, 2.5 mg/kg s.c., 0.5 h, read-out: # protected/# tested)?
The responders at 2.5 mg/kg was 0%.

What about the responders at 10 mg/kg ([1]; Mus musculus, sc, 0.5 h, 10 mg/kg s.c., 0.5 h, read-out: # protected/# tested (converted)) of the same compound?
Its responders at 10 mg/kg is 50%.

And the responders at 15 mg/kg ([1]; Mus musculus, sc, 0.5 h, 15 mg/kg s.c., 0.5 h, read-out: # protected/# tested (converted))?
Its responders at 15 mg/kg is 87.5%.

What about the responders at 20 mg/kg ([1]; Mus musculus, sc, 0.5 h, 20 mg/kg s.c., 0.5 h, read-out: # protected/# tested (converted)) of the same compound?
Its responders at 20 mg/kg is 100%.

And the ED50 ([1]; Mus musculus, sc, at TPE, compound alone, read-out: ED50 (95% CI) 44 mA)?
Its ED50 is 10.2 mg/kg.

What about the “ED50 (95% CI) 44 mA” value ([1]; s.c., at TPE, compound alone) of the same compound?
The value was 10.2 (3.1-12.4) mg/kg.

Which “# protected/# tested” value (corneal kindled seizures; LEV 3 mg/kg) does the source give for `CC[C@@H](C(N)=O)N1CCCC1=O` [LEV, (S)-2-(2-oxopyrrolidin-1-yl) butanamide, reference compound] here?
The value was 5/13.

What about the “% Protected” value (corneal kindled seizures; LEV 3 mg/kg) of the same compound?
The value was 38%.

What about the “Mean Seizure Score” value (corneal kindled seizures; LEV 3 mg/kg) of the same compound?
The value was 3.3.

What about the “activity in maximal electroshock (MES) seizure test” value (MES seizures) of the same compound?
Its value is “no activity”.

What about the “# protected/# tested” value ([1]; LEV (low-dose) control group 25 mg/kg) of the same compound?
The value was 1/8.

And the “# protected/# tested” value ([1]; LEV alone 10 mg/kg i.p., 1 h)?
Its value is “⅙”.

And the responders at 200 mg/kg ([1]; Mus musculus, 6 Hz (44 mA), LEV alone 200 mg/kg, read-out: # protected/# tested (converted))?
The responders at 200 mg/kg was 25%.

What about the responders at 400 mg/kg ([1]; Mus musculus, 6 Hz (44 mA), LEV alone 400 mg/kg, read-out: # protected/# tested (converted)) of the same compound?
Its responders at 400 mg/kg is 44.4%.

And the responders at 800 mg/kg ([1]; Mus musculus, 6 Hz (44 mA), LEV alone 800 mg/kg, read-out: # protected/# tested (converted))?
The responders at 800 mg/kg was 83.3%.

And the ED50 ([1]; Mus musculus, ip, 1 h, 6 Hz (44 mA), LEV alone, i.p., 1 h TPE, read-out: LEV ED50 (95% CI))?
Its ED50 is 345 mg/kg.

And the responders at 10 mg/kg ([1]; Mus musculus, ip, 1 h, LEV alone 10 mg/kg i.p., 1 h, read-out: # protected/# tested (converted))?
Its responders at 10 mg/kg is 16.7%.

And the ED50 ([1]; Mus musculus, ip, 1 h, i.p., 1 h TPE, read-out: ED50 (95% CI) 44 mA, LEV alone)?
Its ED50 is roughly 345 mg/kg.

And the responders at 200 mg/kg ([1]; Mus musculus, ip, LEV alone 200 mg/kg i.p., read-out: # protected/# tested (converted))?
Its responders at 200 mg/kg is 25%.

What about the responders at 350 mg/kg ([1]; Mus musculus, ip, LEV alone 350 mg/kg i.p., read-out: # protected/# tested (converted)) of the same compound?
The responders at 350 mg/kg was 37.5%.

And the responders at 400 mg/kg ([1]; Mus musculus, ip, LEV alone 400 mg/kg i.p., read-out: # protected/# tested (converted))?
The responders at 400 mg/kg was 44.4%.

What about the responders at 800 mg/kg ([1]; Mus musculus, ip, LEV alone 800 mg/kg i.p., read-out: # protected/# tested (converted)) of the same compound?
Its responders at 800 mg/kg is 83.3%.

What about the “Maximum Effect (% Protection)” value ([1]; compound alone) of the same compound?
Its value is 75%.

For `CCCCn1ccc(N2CCC(c3ccc(F)cc3F)CC2)c(Cl)c1=O` [Co. No. 25-a], which “activity when administered alone” value ([1]; 10 mg/kg s.c.) is on record?
Its value is “did not protect; also recorded: Co. No. 25-a (s.c.) 10 mg/kg tested in combination with LEV (i.p.)-Co. No. 25-a 10 mg/kg, not active when administered alone”.

What about the responders at 5 mg/kg ([1]; Mus musculus, sc, 0.25 h, 5 mg/kg s.c., 0.25 h, read-out: # protected/# tested) of the same compound?
The responders at 5 mg/kg was 0%.

What about the responders at 10 mg/kg ([1]; Mus musculus, sc, 0.25 h, 10 mg/kg s.c., 0.25 h, read-out: # protected/# tested (converted)) of the same compound?
Its responders at 10 mg/kg is 0%.

And the responders at 20 mg/kg ([1]; Mus musculus, sc, 0.25 h, 20 mg/kg s.c., 0.25 h, read-out: # protected/# tested (converted))?
The responders at 20 mg/kg was 25%.

And the responders at 30 mg/kg ([1]; Mus musculus, sc, 0.25 h, 30 mg/kg s.c., 0.25 h, read-out: # protected/# tested (converted))?
Its responders at 30 mg/kg is 37.5%.

And the responders at 40 mg/kg ([1]; Mus musculus, sc, 0.25 h, 40 mg/kg s.c., 0.25 h, read-out: # protected/# tested (converted))?
Its responders at 40 mg/kg is 87.5%.

What about the ED50 ([1]; Mus musculus, sc, 0.25 h, s.c., 0.25 hr TPE, read-out: ED50 (95% CI) 44 mA) of the same compound?
The ED50 was 29.1 mg/kg.

What about the ED50 ([1]; Mus musculus, sc, 1 h, s.c., 1 hr TPE, read-out: ED50 (95% CI) 44 mA) of the same compound?
The ED50 was 25.9 mg/kg.

And the “ED50 (95% CI) 44 mA” value ([1]; s.c., 0.25 hr TPE)?
Its value is “ED50 (95% CI): 29.1 mg/kg (21.6 to 39.6)”.

And the “ED50 (95% CI) 44 mA” value ([1]; s.c., 1 hr TPE)?
Its value is 1 hr TPE: 25.9 mg/kg.

And the EC50 (human mGlu2 receptor; in presence of EC20 glutamate, read-out: GTPγS-hmGluR2 PAM pEC50 (converted))?
Its EC50 is 85.1 nM.

And the Emax (human mGlu2 receptor)?
The Emax was 261%.

With `C[C@H](Oc1ccc(F)cc1F)c1ccn2c(CC3CC3)nnc2c1C(F)(F)F` [Co. No. 6-b, 3-(Cyclopropylmethyl)-7-[(1S)-1-(2,4-difluorophenoxy)ethyl]-8-(trifluoromethyl)[1,2,4]triazolo[4,3-a]pyridine] as the compound, how does the “activity when administered alone” value ([1]; 10 mg/kg p.o.) read?
The value was “did not protect; also recorded: Co. No. 6-b 10 mg/kg, not active when administered alone”.

And the responders at 10 mg/kg ([1]; Mus musculus, po, 0.5 h, 10 mg/kg p.o., 0.5 h, read-out: # protected/# tested (converted))?
Its responders at 10 mg/kg is 0%.

And the responders at 15 mg/kg ([1]; Mus musculus, po, 0.5 h, 15 mg/kg p.o., 0.5 h, read-out: # protected/# tested (converted))?
Its responders at 15 mg/kg is 50%.

What about the responders at 20 mg/kg ([1]; Mus musculus, po, 0.5 h, 20 mg/kg p.o., 0.5 h, read-out: # protected/# tested (converted)) of the same compound?
Its responders at 20 mg/kg is 75%.

What about the responders at 40 mg/kg ([1]; Mus musculus, po, 0.5 h, 40 mg/kg p.o., 0.5 h, read-out: # protected/# tested (converted)) of the same compound?
Its responders at 40 mg/kg is 100%.

And the ED50 ([1]; Mus musculus, po, 0.5 h, p.o., 0.5 h TPE, read-out: ED50 (95% CI) 44 mA)?
Its ED50 is 16.1 mg/kg.

And the “ED50 (95% CI) 44 mA” value ([1]; p.o., 0.5 h TPE)?
The value was 16.1 (13.0-20.1) mg/kg.

What about the Emax (human mGlu2 receptor) of the same compound?
Its Emax is 256%.
